Laboratory results: publication PMC6120924, “YesU from Bacillus subtilis preferentially binds fucosylated glycans” (Scientific Reports, 2018)

Target: T1, YesU (Bacillus subtilis, UniProt O31524)
T1 construct: captured by His tag on NTA chip
T1 sequence (O31524 1-220): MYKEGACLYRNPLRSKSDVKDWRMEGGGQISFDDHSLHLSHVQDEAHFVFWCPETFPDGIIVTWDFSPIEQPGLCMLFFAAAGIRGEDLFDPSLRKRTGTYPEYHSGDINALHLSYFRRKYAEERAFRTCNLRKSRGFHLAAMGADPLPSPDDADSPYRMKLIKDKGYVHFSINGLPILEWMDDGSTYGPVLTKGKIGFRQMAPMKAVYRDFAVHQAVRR
Assay: SPR, steady state, single cycle, Biacore T100
Type: binding
Details: His-YesU on Ni-NTA chip; PBS-MgCl2 pH 7.4; 25 °C
Source text: SPR, steady state, single cycle, Biacore T100 on YesU

| SMILES | Kd [nM] |
| --- | --- |
| CC(=O)N[C@H]1C(O)O[C@H](CO)[C@@H](O[C@@H]2O[C@@H](C)[C@@H](O)[C@@H](O)[C@@H]2O)[C@@H]1O[C@@H]1O[C@H](CO)[C@H](O)[C@H](OS(=O)(=O)O)[C@H]1O (stereo partly drawn) [8A, SO3-3Galβ1-3(Fucα1-4)GlcNAc] | 2070 ± 20 |
| CC(=O)N[C@H]1[C@H](O[C@H]2[C@@H](O)[C@@H](CO)O[C@@H](O[C@H]3[C@H](O)[C@@H](O)C(O)O[C@@H]3CO)[C@@H]2O)O[C@H](CO)[C@@H](O)[C@@H]1O[C@@H]1O[C@H](CO)[C@H](O)[C@H](O)[C@H]1O[C@@H]1O[C@@H](C)[C@@H](O)[C@@H](O)[C@@H]1O (stereo partly drawn) [7A, Fucα1-2Galβ1-3GlcNAcβ1-3Galβ1-4Glc] | 1230 ± 20 |
| C[C@@H]1O[C@@H](O[C@H]2C(O)O[C@H](CO)[C@H](O)[C@@H]2O)[C@@H](O)[C@H](O)[C@@H]1O (stereo partly drawn) [7F, Fucα1-2Gal] | 360 ± 10 |
| CC(=O)N[C@H]1[C@H](O[C@H]2[C@@H](O)[C@@H](CO)O[C@@H](O[C@H]3[C@H](O)[C@@H](O)C(O)O[C@@H]3CO)[C@@H]2O)O[C@H](CO)[C@@H](O[C@@H]2O[C@H](CO)[C@H](O)[C@H](O)[C@H]2O)[C@@H]1O (stereo partly drawn) [1H, Galβ1-4GlcNAcβ1-3Galβ1-4Glc] | 440 ± 20 |
| CC(=O)N[C@H]1[C@H](O[C@H]2[C@H](O)[C@@H](NC(C)=O)[C@H](O[C@H]3[C@H](O)[C@@H](NC(C)=O)C(O)O[C@@H]3CO)O[C@@H]2CO)O[C@H](CO)[C@@H](O[C@@H]2O[C@H](CO)[C@@H](O[C@@H]3O[C@H](CO)[C@@H](O[C@@H]4O[C@H](CO)[C@@H](O)[C@H](O)[C@H]4NC(C)=O)[C@H](O)[C@H]3NC(C)=O)[C@H](O)[C@H]2NC(C)=O)[C@@H]1O (stereo partly drawn) [4D, GlcNAcβ1-4GlcNAcβ1-4GlcNAcβ1-4GlcNAcβ1-4GlcNAcβ 1-4GlcNAc] | 1130 ± 20 |
| CC(=O)N[C@H]1C(O)O[C@H](CO)[C@@H](O[C@@H]2O[C@@H](C)[C@@H](O)[C@@H](O)[C@@H]2O)[C@@H]1O[C@@H]1O[C@H](CO)[C@H](O)[C@H](O)[C@H]1O (stereo partly drawn) [7J, Galβ1-3(Fucα1-4)GlcNAc] | 420 ± 4 |
| CC(=O)N[C@H]1[C@H](O[C@H]2[C@@H](O)[C@@H](CO)O[C@@H](O[C@H]3[C@H](O[C@@H]4O[C@@H](C)[C@@H](O)[C@@H](O)[C@@H]4O)[C@@H](O)C(O)O[C@@H]3CO)[C@@H]2O)O[C@H](CO)[C@@H](O[C@@H]2O[C@@H](C)[C@@H](O)[C@@H](O)[C@@H]2O)[C@@H]1O[C@@H]1O[C@H](CO)[C@H](O)[C@H](O)[C@H]1O (stereo partly drawn) [7E, Galβ1-3(Fucα1-4)GlcNAcβ1-3Galβ1-4(Fucα1-3)Glc] | 340 ± 10 |
| CC(=O)N[C@H]1C(O)O[C@H](CO)[C@@H](O[C@@H]2O[C@H](CO)[C@H](O)[C@H](O)[C@H]2O[C@@H]2O[C@@H](C)[C@@H](O)[C@@H](O)[C@@H]2O)[C@@H]1O (stereo partly drawn) [7O, Fucα1-2Galβ1-4GlcNAc] | 340 ± 4 |
| CC(=O)N[C@H]1[C@@H](O[C@H]2[C@@H](O)[C@@H](CO)OC(O)[C@@H]2O[C@@H]2O[C@@H](C)[C@@H](O)[C@@H](O)[C@@H]2O)O[C@H](CO)[C@H](O)[C@@H]1O (stereo partly drawn) [7K, GalNAcα1-3(Fucα1-2)Gal] | 7630 ± 300 |
| CC(=O)N[C@H]1[C@H](O[C@H]2[C@@H](O)[C@@H](CO)O[C@@H](O[C@H]3[C@H](O)[C@@H](O)C(O)O[C@@H]3CO)[C@@H]2O)O[C@H](CO)[C@@H](O[C@@H]2O[C@H](CO)[C@H](O)[C@H](O)[C@H]2O[C@@H]2O[C@@H](C)[C@@H](O)[C@@H](O)[C@@H]2O)[C@@H]1O[C@@H]1O[C@@H](C)[C@@H](O)[C@@H](O)[C@@H]1O (stereo partly drawn) [8H, Fucα1-2Galβ1-4(Fucα1-3)GlcNAcβ1-3Galβ1-4Glc] | 1140 ± 30 |

Results, then the molecule that gave them:

| Kd [nM] | SMILES |
| --- | --- |
| 150 ± 6 | CC(=O)N[C@H]1C(O)O[C@H](CO)[C@@H](O[C@@H]2O[C@H](CO)[C@H](O)[C@H](O)[C@H]2O)[C@@H]1O[C@@H]1O[C@@H](C)[C@@H](O)[C@@H](O)[C@@H]1O (stereo partly drawn) [7I, Galβ1-4(Fucα1-3)GlcNAc] |
| 340 ± 2 | CC(=O)N[C@H]1C(O)O[C@H](CO)[C@@H](O[C@@H]2O[C@H](CO)[C@H](O)[C@H](O)[C@H]2O[C@@H]2O[C@@H](C)[C@@H](O)[C@@H](O)[C@@H]2O)[C@@H]1O[C@@H]1O[C@@H](C)[C@@H](O)[C@@H](O)[C@@H]1O (stereo partly drawn) [7N, Fucα1-2Galβ1-4(Fucα1-3)GlcNAc] |
| 140 ± 1 | CC(=O)N[C@H]1[C@H](O[C@H]2[C@@H](O)[C@@H](CO)O[C@@H](O[C@H]3[C@H](O)[C@@H](O)C(O)O[C@@H]3CO)[C@@H]2O)O[C@H](CO)[C@@H](O[C@@H]2O[C@H](CO)[C@H](O)[C@H](O)[C@H]2O)[C@@H]1O[C@@H]1O[C@@H](C)[C@@H](O)[C@@H](O)[C@@H]1O (stereo partly drawn) [7C, Galβ1-4(Fucα1-3)GlcNAcβ1-3Galβ1-4Glc] |
| 190 ± 3 | C[C@@H]1O[C@@H](O[C@H]2C(O)O[C@H](CO)[C@H](O)[C@@H]2O[C@H]2O[C@H](CO)[C@H](O)[C@H](O)[C@H]2O)[C@@H](O)[C@H](O)[C@@H]1O (stereo partly drawn) [7M, Galα1-3(Fucα1-2)Gal] |
| 240 ± 20 | CC(=O)NC1C(OC2C(O)C(COC3OC(CO)C(OC4OC(CO)C(O)C(OC5OC(CO)C(OC6OC(CO)C(O)C(O)C6O)C(O)C5NC(C)=O)C4O)C(OC4OC(C)C(O)C(O)C4O)C3NC(C)=O)OC(OC3C(CO)OC(O)C(O)C3O)C2O)OC(CO)C(OC2OC(CO)C(O)C(O)C2O)C1O (stereo not drawn) [8N, Galβ1-3GlcNAcβ1-3Galβ1-4(Fucα1-3)GlcNAcβ1-6(Galβ1-3 GlcNAcβ1-3)Galβ1-4Glc] |
